Results published in ChEMBL document CHEMBL1152085, “Novel 3-deoxy-3-descladinosyl-6-O-methyl erythromycin a analogues. Synthesis and in vitro activity” (1997).
In brackets after ≈: the same amount, converted by molar mass.

Key:
Assay type in all cases: functional
Staphylococcus aureus [1] = assay: Tested in vitro for minimum inhibitory concentration to produce antibacterial activity against Staphylococcus aureus A-5278 in presence of erythromycin A
Staphylococcus aureus [2] = assay: Tested in vitro for minimum inhibitory concentration to produce antibacterial activity against Staphylococcus aureus CMX 553
Staphylococcus aureus [3] = assay: Tested in vitro for minimum inhibitory concentration to produce antibacterial activity against Staphylococcus aureus ATCC 6538P
Streptococcus agalactiae [4] = assay: Tested in vitro for minimum inhibitory concentration to produce antibacterial activity against Streptococcus agalactiae CMX 508 in presence of erythromycin A
Escherichia coli [5] = assay: Tested in vitro for minimum inhibitory concentration to produce antibacterial activity against Escherichia coli JUHL
Staphylococcus aureus [6] = assay: Tested in vitro for minimum inhibitory concentration to produce antibacterial activity against Staphylococcus aureus 1775
Streptococcus pyogenes [7] = assay: Tested in vitro for minimum inhibitory concentration to produce antibacterial activity against Streptococcus pyogenes 930
Escherichia coli [8] = assay: Tested in vitro for minimum inhibitory concentration to produce antibacterial activity against Escherichia coli SS in presence of erythromycin A
Staphylococcus aureus [9] = assay: Tested in vitro for minimum inhibitory concentration to produce antibacterial activity against Staphylococcus aureus CMX 642A
Streptococcus pyogenes [10] = assay: Tested in vitro for minimum inhibitory concentration to produce antibacterial activity against Streptococcus pyogenes PIU 2548
Staphylococcus aureus [11] = assay: Tested in vitro for minimum inhibitory concentration to produce antibacterial activity against Staphylococcus aureus CMX 553 in presence of erythromycin A
Enterococcus faecium [12] = assay: Tested in vitro for minimum inhibitory concentration to produce antibacterial activity against Enterococcus faecium ATCC 8043 in presence of erythromycin A
Streptococcus equinus [13] = assay: Tested in vitro for minimum inhibitory concentration to produce antibacterial activity against Streptococcus bovis A-5169
Streptococcus pyogenes [14] = assay: Tested in vitro for minimum inhibitory concentration to produce antibacterial activity against Streptococcus pyogenes EES61 in presence of erythromycin A
Staphylococcus aureus [15] = assay: Tested in vitro for minimum inhibitory concentration to produce antibacterial activity against Staphylococcus aureus A5177
Streptococcus pyogenes [16] = assay: Tested in vitro for minimum inhibitory concentration to produce antibacterial activity against Streptococcus pyogenes PIU 2548 in presence of erythromycin A
Streptococcus pyogenes [17] = assay: Tested in vitro for minimum inhibitory concentration to produce antibacterial activity against Streptococcus pyogenes EES61
Streptococcus pyogenes [18] = assay: Tested in vitro for minimum inhibitory concentration to produce antibacterial activity against Streptococcus pyogenes 930 in presence of erythromycin A
Escherichia coli [19] = assay: Tested in vitro for minimum inhibitory concentration to produce antibacterial activity against Escherichia coli SS
Streptococcus equinus [20] = assay: Tested in vitro for minimum inhibitory concentration to produce antibacterial activity against Streptococcus bovis A-5169 in presence of erythromycin A
Staphylococcus aureus [21] = assay: Tested in vitro for minimum inhibitory concentration to produce antibacterial activity against Staphylococcus aureus A-5278
Staphylococcus aureus [22] = assay: Tested in vitro for minimum inhibitory concentration to produce antibacterial activity against Staphylococcus aureus CMX 642A in presence of erythromycin A
[23] = test system: Staphylococcus epidermidis; assay: Tested in vitro for minimum inhibitory concentration to produce antibacterial activity against Staphylococcus epidermidis 3519
Staphylococcus aureus [24] = assay: Tested in vitro for minimum inhibitory concentration to produce antibacterial activity against Staphylococcus aureus NCTC-10649M in presence of erythromycin A
Staphylococcus aureus [25] = assay: Tested in vitro for minimum inhibitory concentration to produce antibacterial activity against Staphylococcus aureus NCTC-10649M
Enterococcus faecium [26] = assay: Tested in vitro for minimum inhibitory concentration to produce antibacterial activity against Enterococcus faecium ATCC 8043
Staphylococcus aureus [27] = assay: Tested in vitro for minimum inhibitory concentration to produce antibacterial activity against Staphylococcus aureus A5177 in presence of erythromycin A
Streptococcus agalactiae [28] = assay: Tested in vitro for minimum inhibitory concentration to produce antibacterial activity against Streptococcus agalactiae CMX 508
Escherichia coli [29] = assay: Tested in vitro for minimum inhibitory concentration to produce antibacterial activity against Escherichia coli JUHL in presence of erythromycin A
Staphylococcus aureus [30] = assay: Tested in vitro for minimum inhibitory concentration to produce antibacterial activity against Staphylococcus aureus ATCC 6538P in presence of erythromycin A
Staphylococcus aureus [31] = assay: Tested in vitro for minimum inhibitory concentration to produce antibacterial activity against Staphylococcus aureus 1775 in presence of erythromycin A
[32] = test system: Staphylococcus epidermidis; assay: Tested in vitro for minimum inhibitory concentration to produce antibacterial activity against Staphylococcus epidermidis 3519 in presence of erythromycin A

Row | MIC (Staphylococcus aureus [1]) [µg/mL] | MIC (Staphylococcus aureus [2]) [µg/mL] | MIC (Staphylococcus aureus [3]) [µg/mL] | MIC (Streptococcus agalactiae [4]) [µg/mL] | MIC (Escherichia coli [5]) [µg/mL] | MIC (Staphylococcus aureus [6]) [µg/mL] | MIC (Streptococcus pyogenes [7]) [µg/mL] | MIC (Escherichia coli [8]) [µg/mL] | MIC (Staphylococcus aureus [9]) [µg/mL] | MIC (Staphylococcus aureus [11]) [µg/mL] | MIC (Enterococcus faecium [12]) [µg/mL] | MIC (Streptococcus equinus [13]) [µg/mL] | MIC (Streptococcus pyogenes [14]) [µg/mL] | MIC (Staphylococcus aureus [15]) [µg/mL] | MIC (Streptococcus pyogenes [17]) [µg/mL] | MIC (Streptococcus pyogenes [18]) [µg/mL] | MIC (Escherichia coli [19]) [µg/mL] | MIC (Streptococcus equinus [20]) [µg/mL] | MIC (Staphylococcus aureus [21]) [µg/mL] | MIC (Staphylococcus aureus [22]) [µg/mL] | SMILES | also measured
1 | > 100 | 12.5 (≈ 21.2 µM) | 12.5 (≈ 21.2 µM) | 0.01 | > 100 | > 100 | > 100 | 0.2 | 12.5 (≈ 21.2 µM) | 0.2 | 0.05 | 0.78 (≈ 1.32 µM) | 0.01 | 25 (≈ 42.5 µM) | 0.78 (≈ 1.32 µM) | > 100 | 0.78 (≈ 1.32 µM) | 0.05 | > 100 | 0.2 | CC[C@H]1OC(=O)[C@H](C)C[C@H](C)[C@@H](O[C@@H]2O[C@H](C)C[C@H](N(C)C)[C@H]2O)[C@](C)(OC)C[C@@H](C)/C(=N\O)[C@H](C)[C@@H](O)[C@]1(C)O | MIC (Streptococcus pyogenes [10]): 1.56 µg/mL (≈ 2.65 µM); MIC (Streptococcus pyogenes [16]): 6.2 µg/mL; MIC [23]: 12.5 µg/mL (≈ 21.2 µM); MIC (Staphylococcus aureus [24]): 0.2 µg/mL; MIC (Staphylococcus aureus [25]): 12.5 µg/mL (≈ 21.2 µM); MIC (Enterococcus faecium [26]): 3.1 µg/mL (≈ 5.27 µM); MIC (Staphylococcus aureus [27]): 3.1 µg/mL; MIC (Streptococcus agalactiae [28]): 0.78 µg/mL (≈ 1.32 µM); MIC (Escherichia coli [29]): 50 µg/mL; MIC (Staphylococcus aureus [30]): 0.2 µg/mL; MIC (Staphylococcus aureus [31]): > 100 µg/mL; MIC [32]: 0.2 µg/mL
2 | > 100 | 3.1 (≈ 5.17 µM) | 6.2 (≈ 10.3 µM) | 0.01 | > 100 | > 100 | > 100 | 0.2 | 3.1 (≈ 5.17 µM) | 0.2 | 0.05 | 0.2 (≈ 0.333 µM) | 0.01 | 3.1 (≈ 5.17 µM) | 0.2 (≈ 0.333 µM) | > 100 | 0.78 (≈ 1.3 µM) | 0.05 | > 100 | 0.2 | CC[C@H]1OC(=O)[C@H](C)C[C@H](C)[C@@H](O[C@@H]2O[C@H](C)C[C@H](N(C)C)[C@H]2O)[C@](C)(OC)C[C@@H](C)C(=O)[C@H](C)[C@H]2OC(=O)O[C@@]21C | MIC (Streptococcus pyogenes [10]): 0.78 µg/mL (≈ 1.3 µM); MIC (Streptococcus pyogenes [16]): 6.2 µg/mL; MIC [23]: 6.2 µg/mL (≈ 10.3 µM); MIC (Staphylococcus aureus [24]): 0.2 µg/mL; MIC (Staphylococcus aureus [25]): 6.2 µg/mL (≈ 10.3 µM); MIC (Enterococcus faecium [26]): 0.78 µg/mL (≈ 1.3 µM); MIC (Staphylococcus aureus [27]): 3.1 µg/mL; MIC (Streptococcus agalactiae [28]): 0.2 µg/mL (≈ 0.333 µM); MIC (Escherichia coli [29]): 50 µg/mL; MIC (Staphylococcus aureus [30]): 0.2 µg/mL; MIC (Staphylococcus aureus [31]): > 100 µg/mL; MIC [32]: 0.2 µg/mL
3 | > 100 | 100 (≈ 166 µM) | 100 (≈ 166 µM) | 0.02 | > 100 | > 100 | 100 (≈ 166 µM) | 0.39 | 100 (≈ 166 µM) | 0.39 | 0.1 | 3.1 (≈ 5.14 µM) | 0.01 | 100 (≈ 166 µM) | 6.2 (≈ 10.3 µM) | > 100 | 6.2 (≈ 10.3 µM) | 0.01 | > 100 | 0.39 | CC[C@H]1OC(=O)[C@H](C)C[C@H](C)[C@@H](O[C@@H]2O[C@H](C)C[C@H](N(C)C)[C@H]2O)[C@](C)(OC)C[C@@H](C)/C(=N\OC)[C@H](C)[C@@H](O)[C@]1(C)O | MIC [23]: 100 µg/mL (≈ 166 µM); MIC (Staphylococcus aureus [24]): 0.39 µg/mL; MIC (Staphylococcus aureus [25]): 100 µg/mL (≈ 166 µM); MIC (Enterococcus faecium [26]): 100 µg/mL (≈ 166 µM); MIC (Staphylococcus aureus [27]): 6.2 µg/mL; MIC (Streptococcus agalactiae [28]): 25 µg/mL (≈ 41.5 µM); MIC (Escherichia coli [29]): 50 µg/mL; MIC (Staphylococcus aureus [30]): 0.2 µg/mL; MIC (Staphylococcus aureus [31]): > 100 µg/mL; MIC [32]: 0.2 µg/mL
4 | > 100 | 25 (≈ 43.6 µM) | 25 (≈ 43.6 µM) | 0.02 | > 100 | > 100 | > 100 | 0.1 | 25 (≈ 43.6 µM) | 0.2 | 0.05 | 0.78 (≈ 1.36 µM) | 0.02 | 25 (≈ 43.6 µM) | 1.56 (≈ 2.72 µM) | > 100 | 0.78 (≈ 1.36 µM) | 0.02 | > 100 | 0.2 | CC[C@H]1OC(=O)[C@H](C)C[C@H](C)[C@@H](O[C@@H]2O[C@H](C)C[C@H](N(C)C)[C@H]2O)[C@](C)(OC)C[C@@H](C)C(=O)[C@H](C)[C@@H](O)[C@]1(C)O | MIC (Streptococcus pyogenes [10]): 3.1 µg/mL (≈ 5.4 µM); MIC (Streptococcus pyogenes [16]): 6.2 µg/mL; MIC [23]: 50 µg/mL (≈ 87.1 µM); MIC (Staphylococcus aureus [24]): 0.2 µg/mL; MIC (Staphylococcus aureus [25]): 6.2 µg/mL (≈ 10.8 µM); MIC (Enterococcus faecium [26]): 25 µg/mL (≈ 43.6 µM); MIC (Staphylococcus aureus [27]): 1.56 µg/mL; MIC (Streptococcus agalactiae [28]): 3.1 µg/mL (≈ 5.4 µM); MIC (Escherichia coli [29]): 50 µg/mL; MIC (Staphylococcus aureus [30]): 0.1 µg/mL; MIC (Staphylococcus aureus [31]): > 100 µg/mL; MIC [32]: 0.1 µg/mL
